Assay results published in US6933304B2, “Heteroarylalkanoic acids as integrin receptor antagonists” (Pharmacia Corporation, priority 2000, dated 2005).
pIC50: −log10 of the molar value.

How the values were obtained:
[1] = biological target: T1, Human vitronectin receptor αVβ3 (Homo sapiens, UniProt P05106+P06756); test: Vitronectin adhesion assay (solid phase receptor assay); type: binding; conditions: positive control included on each plate; read-out: IC50 αVβ3 antagonist (positive control)
T1 construct: Human vitronectin receptors αVβ3 and αVβ5 were purified from human placenta; from tissue; host or cells: human placenta
Experimental: Human vitronectin receptors αVβ3 and αVβ5 were purified from human placenta as previously described [Pytela et al., Methods in Enzymology, 144:475-489 (1987)]. Human vitronectin was purified from fresh frozen plasma as previously described [Yatohgo et al., Cell Structure and Function, 13:281-292 (1988)]. Biotinylated human vitronectin was prepared by coupling NHS-biotin from Pierce Chemical Company (Rockford, Ill.) to purified vitronectin as previously described [Charo et al., J. Biol. Chem., 266(3):1415-1421 (1991)]. Assay buffer, OPD substrate tablets, and RIA grade BSA were obtained from Sigma (St. Louis, Mo.). Anti-biotin antibody was obtained from Sigma (St. Louis, Mo.). Nalge Nunc-Immuno microtiter plates were obtained from Nalge Company (Rochester, N.Y.).
This assay was essentially the same as previously reported [Niiya et al., Blood, 70:475-483 (1987)]. […] The plate was read with a microtiter plate reader at a wavelength of 450 nm and when the maximum-binding control wells reached an absorbance of about 1.0, the final A450 were recorded for analysis. The data were analyzed using a macro written for use with the EXCEL spreadsheet program. The mean, standard deviation, and % CV were determined for duplicate concentrations. […]

[2] = biological target: T2, αVβ3 integrin (293-β3 cells) (Homo sapiens, UniProt P05106+P06756); test: 293-β3 cell adhesion assay (adhesion to immobilized vitronectin); type: cell-based; conditions: 200 uM Mn2+, read-out: 293-β3 (IC50 <10 μM)
T2 construct: expressed in transfected cells; host or cells: 293 human embryonic kidney cells (293-β3)

[3] = biological target: T3, αVβ6 (HT-29 human colon carcinoma cells) (Homo sapiens, UniProt P06756+P18564); test: HT-29 cell adhesion assay (adhesion to immobilized LAP); type: cell-based; conditions: selectivity ratio: IC50 αVβ6 (HT-29) over IC50 β3
T3 construct: endogenous in cells; host or cells: HT-29 human colon carcinoma cells

[4] = biological target: T4, Human fibrinogen receptor (IIb/IIIa) (Homo sapiens, UniProt P05106+P08514); test: Purified IIb/IIIa receptor assay (solid phase receptor assay, SPRA); type: binding; conditions: selectivity ratio: IC50 αIIbβ3 (solid phase receptor assay) over IC50 β3
T4 construct: Human fibrinogen receptor (IIb/IIIa) was purified from outdated platelets; from tissue; host or cells: outdated human platelets
In short: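 Purified platelet IIb/IIIa coated at 100 ng/well in TBS with 1.0 mM Ca, Mg, Mn, pH 7.4, overnight at 4 °C, then BSA-blocked. Compounds (top 1.0×10^−4 M) competed 2 h at room temperature with 1 nM biotinylated vitronectin; bound ligand read via HRP anti-biotin/OPD at 450 nm, normalized to no-competitor controls, four-parameter fit.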

T4 sequence (P08514 32-887 limits assumed): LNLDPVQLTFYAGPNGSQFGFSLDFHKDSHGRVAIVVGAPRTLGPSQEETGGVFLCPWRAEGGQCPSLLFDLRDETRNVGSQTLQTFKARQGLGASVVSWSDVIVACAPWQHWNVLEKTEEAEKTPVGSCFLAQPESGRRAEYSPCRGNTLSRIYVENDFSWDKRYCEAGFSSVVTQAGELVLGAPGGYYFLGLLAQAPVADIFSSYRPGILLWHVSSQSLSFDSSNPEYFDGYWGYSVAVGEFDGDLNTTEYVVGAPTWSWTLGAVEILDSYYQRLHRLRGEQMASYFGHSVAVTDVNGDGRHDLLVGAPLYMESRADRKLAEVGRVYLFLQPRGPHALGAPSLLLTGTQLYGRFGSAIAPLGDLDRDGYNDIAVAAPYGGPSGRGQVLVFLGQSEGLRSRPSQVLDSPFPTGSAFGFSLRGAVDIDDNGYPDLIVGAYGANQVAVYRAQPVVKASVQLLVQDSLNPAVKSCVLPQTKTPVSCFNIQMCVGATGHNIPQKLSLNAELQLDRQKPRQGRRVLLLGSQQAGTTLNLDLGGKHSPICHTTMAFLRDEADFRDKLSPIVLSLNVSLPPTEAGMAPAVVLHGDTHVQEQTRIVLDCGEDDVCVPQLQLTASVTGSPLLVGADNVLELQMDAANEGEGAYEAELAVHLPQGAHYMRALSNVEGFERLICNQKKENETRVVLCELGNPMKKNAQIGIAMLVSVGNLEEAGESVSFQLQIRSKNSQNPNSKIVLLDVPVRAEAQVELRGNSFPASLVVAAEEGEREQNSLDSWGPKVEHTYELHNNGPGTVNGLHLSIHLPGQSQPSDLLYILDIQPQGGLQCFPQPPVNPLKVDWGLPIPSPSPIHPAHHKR
T4 sequence (P08514 891-1039 partner limits assumed): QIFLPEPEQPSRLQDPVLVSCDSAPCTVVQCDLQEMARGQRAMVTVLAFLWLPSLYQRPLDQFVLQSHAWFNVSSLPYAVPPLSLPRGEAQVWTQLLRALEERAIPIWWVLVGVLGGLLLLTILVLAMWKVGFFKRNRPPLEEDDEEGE
T4 sequence (P05106 27-788): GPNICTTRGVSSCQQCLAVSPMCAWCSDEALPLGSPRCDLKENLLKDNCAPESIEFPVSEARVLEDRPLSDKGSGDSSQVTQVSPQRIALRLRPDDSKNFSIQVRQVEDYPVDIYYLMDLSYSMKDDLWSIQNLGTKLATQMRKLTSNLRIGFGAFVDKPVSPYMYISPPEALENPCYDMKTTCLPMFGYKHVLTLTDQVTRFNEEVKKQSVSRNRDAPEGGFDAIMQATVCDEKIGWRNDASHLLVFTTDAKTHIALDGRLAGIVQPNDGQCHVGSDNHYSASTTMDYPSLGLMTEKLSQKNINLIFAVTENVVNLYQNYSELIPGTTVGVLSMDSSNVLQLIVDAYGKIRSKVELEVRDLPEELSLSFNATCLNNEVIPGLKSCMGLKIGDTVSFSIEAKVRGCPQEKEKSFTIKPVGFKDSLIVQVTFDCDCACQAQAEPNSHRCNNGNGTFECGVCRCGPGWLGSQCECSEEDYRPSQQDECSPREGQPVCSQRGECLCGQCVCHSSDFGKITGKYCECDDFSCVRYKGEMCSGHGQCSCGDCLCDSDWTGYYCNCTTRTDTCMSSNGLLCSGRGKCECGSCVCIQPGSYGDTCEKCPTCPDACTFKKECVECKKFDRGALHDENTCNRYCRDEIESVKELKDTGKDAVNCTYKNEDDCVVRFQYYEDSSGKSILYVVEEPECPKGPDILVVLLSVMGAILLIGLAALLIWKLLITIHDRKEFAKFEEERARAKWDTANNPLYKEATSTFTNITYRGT
T3 sequence (P06756 31-889 limits assumed): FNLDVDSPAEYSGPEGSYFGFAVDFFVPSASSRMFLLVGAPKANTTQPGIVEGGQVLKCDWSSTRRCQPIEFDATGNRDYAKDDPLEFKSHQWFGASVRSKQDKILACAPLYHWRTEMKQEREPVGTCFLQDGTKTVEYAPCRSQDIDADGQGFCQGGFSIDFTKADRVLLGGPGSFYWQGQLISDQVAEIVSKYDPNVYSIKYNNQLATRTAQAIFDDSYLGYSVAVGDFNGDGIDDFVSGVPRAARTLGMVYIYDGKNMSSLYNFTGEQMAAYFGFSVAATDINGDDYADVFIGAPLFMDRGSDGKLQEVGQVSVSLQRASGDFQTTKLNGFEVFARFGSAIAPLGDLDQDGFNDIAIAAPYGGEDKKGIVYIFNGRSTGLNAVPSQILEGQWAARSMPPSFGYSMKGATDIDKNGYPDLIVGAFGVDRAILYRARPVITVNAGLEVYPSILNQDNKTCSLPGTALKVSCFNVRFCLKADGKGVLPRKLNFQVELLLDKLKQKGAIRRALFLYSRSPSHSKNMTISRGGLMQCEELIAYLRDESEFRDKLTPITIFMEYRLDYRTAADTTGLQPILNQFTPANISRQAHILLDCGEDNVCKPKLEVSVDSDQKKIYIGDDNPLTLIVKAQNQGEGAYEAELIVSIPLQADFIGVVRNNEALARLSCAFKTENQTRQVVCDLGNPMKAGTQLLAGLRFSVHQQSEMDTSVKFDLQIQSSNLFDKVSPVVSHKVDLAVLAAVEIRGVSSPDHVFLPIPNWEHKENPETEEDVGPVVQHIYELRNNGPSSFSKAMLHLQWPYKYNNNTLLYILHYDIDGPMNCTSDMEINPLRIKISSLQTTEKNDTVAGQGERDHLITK
T3 sequence (P06756 891-1048 partner limits assumed): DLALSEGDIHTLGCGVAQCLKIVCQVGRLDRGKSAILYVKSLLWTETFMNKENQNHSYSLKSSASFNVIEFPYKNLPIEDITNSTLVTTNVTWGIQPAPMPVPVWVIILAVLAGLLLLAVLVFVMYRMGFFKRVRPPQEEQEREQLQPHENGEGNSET
T3 sequence (P18564 22-788): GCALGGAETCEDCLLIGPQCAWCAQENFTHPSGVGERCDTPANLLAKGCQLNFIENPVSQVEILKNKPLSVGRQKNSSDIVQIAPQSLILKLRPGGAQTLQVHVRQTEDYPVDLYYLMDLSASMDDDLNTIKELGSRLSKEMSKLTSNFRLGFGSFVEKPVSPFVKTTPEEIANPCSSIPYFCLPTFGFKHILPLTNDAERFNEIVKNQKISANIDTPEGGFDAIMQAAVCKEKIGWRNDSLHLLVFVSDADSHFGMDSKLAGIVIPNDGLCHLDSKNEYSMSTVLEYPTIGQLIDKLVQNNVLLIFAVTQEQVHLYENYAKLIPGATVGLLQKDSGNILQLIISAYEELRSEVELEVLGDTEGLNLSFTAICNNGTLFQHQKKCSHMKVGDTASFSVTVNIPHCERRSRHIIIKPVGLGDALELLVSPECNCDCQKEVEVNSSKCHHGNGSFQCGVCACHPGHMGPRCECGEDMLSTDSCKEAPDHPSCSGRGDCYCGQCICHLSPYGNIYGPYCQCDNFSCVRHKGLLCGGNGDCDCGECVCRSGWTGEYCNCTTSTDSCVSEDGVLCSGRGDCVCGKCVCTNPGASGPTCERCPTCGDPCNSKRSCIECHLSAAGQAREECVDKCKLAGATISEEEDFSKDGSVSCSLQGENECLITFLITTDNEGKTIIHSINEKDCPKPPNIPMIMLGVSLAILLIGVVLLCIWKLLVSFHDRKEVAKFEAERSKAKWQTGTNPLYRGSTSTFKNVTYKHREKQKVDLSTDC
T2 sequence (P06756 31-889 limits assumed): as the sequence (P06756 31-889 limits assumed) above
T2 sequence (P06756 891-1048 partner limits assumed): as the sequence (P06756 891-1048 partner limits assumed) above
T2 sequence (P05106 27-788): as the sequence (P05106 27-788) above
T1 sequence (P06756 31-889 limits assumed): as the sequence (P06756 31-889 limits assumed) above
T1 sequence (P06756 891-1048 partner limits assumed): as the sequence (P06756 891-1048 partner limits assumed) above
T1 sequence (P05106 27-788): as the sequence (P05106 27-788) above

Molecule | pIC50 [1] | pIC50 [2] | HT-29 β-6 Selectivity* (β6/β3) [3] | SPRA AIIbB3 Selectivity* IIbIIIa/β3 [4]
β-[[2-[[5-[(aminoiminomethyl)amino]-1-oxopentyl]amino]-1-oxoethyl]amino]-3-pyridinepropanoic acid | 8.00 to 8.52 | – | – | –
O=C(O)C(F)(F)F.O=C(O)CC(Cc1nc(CCCc2ccc3c(n2)NCCC3)no1)c1cnc2ccccc2c1 (stereo not shown) [Example 18, 3-quinolin-3-yl-4-{3-[3-(5,6,7,8-tetrahydro-1,8-naphthyridin-2-yl)propyl]-1,2,4-oxadiazol-5-yl}butanoic acid] | – | > 5.00 | +++ (Selectivity Ratio >100 +++) | +++ (Selectivity Ratio >100 +++)
O=C(O)C(F)(F)F.O=C(O)CC1(Cc2nc(CCCCNc3ccccn3)no2)CCCC1 [Example 4, [1-({3-[4-(pyridin-2-ylamino)butyl]-1,2,4-oxadiazol-5-yl}methyl)cyclopentyl]-acetic acid] | – | > 5.00 | +++ (Selectivity Ratio >100 +++) | ++ (Selectivity Ratio of 10-100 ++)
CC(CC(=O)O)(Cc1nc(CCCCNc2ccccn2)no1)c1cccnc1 (stereo not shown) [Example 57, 3-Methyl-3-pyridin-3-yl-4-{3-[4-(pyridin-2-ylamino)-butyl]-[1,2,4]oxadiazol-5-yl}-butyric acid] | – | > 5.00 | +++ (Selectivity Ratio >100 +++) | +++ (Selectivity Ratio >100 +++)
O=C(O)C(F)(F)F.O=C(O)CC(Cc1nc(CCCCNc2ccccn2)no1)c1cccc(F)c1 (stereo not shown) [Example 25, 3-(3-fluorophenyl)-4-{3-[4-(pyridin-2-ylamino)butyl]-1,2,4-oxadiazol-5-yl}butanoic acid trifluoroacetate] | – | > 5.00 | +++ (Selectivity Ratio >100 +++) | ++ (Selectivity Ratio of 10-100 ++)
CC(CC(=O)O)Cc1nc(CCCCNc2ccccn2)no1.Cl (stereo not shown) [Example 69, 3-methyl-4-{3-[4-(pyridin-2-ylamino)butyl]-1,2,4-oxadiazol-5-yl}butanoic acid] | – | > 5.00 | +++ (Selectivity Ratio >100 +++) | ++ (Selectivity Ratio of 10-100 ++)
CCC(CC)(CC(=O)O)Cc1nc(CCCc2ccc3c(n2)NCCC3)no1 [Example 45, 3-Ethyl-3-{3-[3-(5,6,7,8-tetrahydro-[1,8]naphthyridin-2-yl)-propyl]-[1,2,4]oxadiazol-5-ylmethyl}-pentanoic acid] | – | > 5.00 | ++ (Selectivity Ratio of 10-100 ++) | ++ (Selectivity Ratio of 10-100 ++)
O=C(O)C(F)(F)F.O=C(O)CC(Cc1nc(CCCCNc2ccccn2)no1)c1cnc2ccccc2c1 (stereo not shown) [Example 19, 3-quinolin-3-yl-4-{3-[4-(pyridin-2-ylamino)butyl]-1,2,4-oxadiazol-5-yl}-butanoic acid] | – | > 5.00 | +++ (Selectivity Ratio >100 +++) | ++ (Selectivity Ratio of 10-100 ++)
